Results published in ChEMBL document CHEMBL1201862, “PubChem BioAssay data set” (2004).
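Dose response: 5 concentrations. Exposure: 48 h. Format: 96-well plates. Endpoint: linear interpolation; highest concentration if not reached. Abbreviation: GI50, concentration required for 50% inhibition of growth.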 Activity calls are given as the source filed them. Cut-off read from the data, not from the text of the source: active = GI50 up to about 1.1 µM and inactive = higher.

What was measured:
Experiment in all cases: NCI tumour cell line growth inhibition, 48 h
Malme-3M = test system: Malme-3M
RXF 393 = test system: RXF 393
MOLT-4 = test system: MOLT-4
HCC 2998 = test system: HCC 2998
EKVX = test system: EKVX
SK-MEL-5 = test system: SK-MEL-5
NCI-H23 = test system: NCI-H23
SF-539 = test system: SF-539
786-0 = test system: 786-0
NCI-H226 = test system: NCI-H226
A549 = test system: A549
UACC-257 = test system: UACC-257
CCRF-CEM = test system: CCRF-CEM
M14 = test system: M14
OVCAR-3 = test system: OVCAR-3
LOX IMVI = test system: LOX IMVI
HOP-62 = test system: HOP-62
SNB-75 = test system: SNB-75
PC-3 = test system: PC-3

SMILES | GI50 (Malme-3M) | GI50 (RXF 393) | GI50 (MOLT-4) | GI50 (HCC 2998) | GI50 (EKVX) | GI50 (SK-MEL-5) | GI50 (NCI-H23) | GI50 (SF-539) | GI50 (786-0) | GI50 (NCI-H226) | GI50 (A549) | GI50 (UACC-257) | GI50 (CCRF-CEM) | GI50 (M14) | GI50 (OVCAR-3) | GI50 (LOX IMVI) | GI50 (HOP-62) | GI50 (SNB-75) | GI50 (PC-3)
COC(=O)C(=O)C(C(=O)C(=O)Nc1ccccc1C(N)=O)c1nc2ccc(C(=O)c3ccccc3)cc2nc1O (centres undefined) | > 100 µM (inactive) | 80.2 µM (inactive) | 92.5 µM (inactive) | > 100 µM (inactive) | > 100 µM (inactive) | 52.6 µM (inactive) | > 100 µM (inactive) | > 100 µM (inactive) | > 100 µM (inactive) | 92.7 µM (inactive) | > 100 µM (inactive) | > 100 µM (inactive) | > 100 µM (inactive) | > 100 µM (inactive) | – | – | – | – | –
O=C(O)[C@H](NS(=O)(=O)c1ccc([N+](=O)[O-])cc1)c1ccccc1 | > 100 µM (inactive) | > 100 µM (inactive) | > 100 µM (inactive) | > 100 µM (inactive) | > 100 µM (inactive) | > 100 µM (inactive) | > 100 µM (inactive) | > 100 µM (inactive) | > 100 µM (inactive) | > 100 µM (inactive) | > 100 µM (inactive) | > 100 µM (inactive) | > 100 µM (inactive) | > 100 µM (inactive) | > 100 µM (inactive) | > 100 µM (inactive) | > 100 µM (inactive) | > 100 µM (inactive) | –
C=CC[C@@]1(C#N)C[C@H](C[C@]2(C#N)C[C@H](CCl)OC(C)(C)O2)OC(C)(C)O1 | > 100 µM (inactive) | > 100 µM (inactive) | 72.8 µM (inactive) | > 100 µM (inactive) | > 100 µM (inactive) | 63.5 µM (inactive) | > 100 µM (inactive) | > 100 µM (inactive) | > 100 µM (inactive) | 38.4 µM (inactive) | > 100 µM (inactive) | 94.8 µM (inactive) | > 100 µM (inactive) | > 100 µM (inactive) | > 100 µM (inactive) | > 100 µM (inactive) | > 100 µM (inactive) | 64.4 µM (inactive) | –
C=C(c1ccccc1)C1(O)CCCCC1N (centres undefined) | > 100 µM (inactive) | > 100 µM (inactive) | 31.8 µM (inactive) | > 100 µM (inactive) | > 100 µM (inactive) | > 100 µM (inactive) | > 100 µM (inactive) | > 100 µM (inactive) | > 100 µM (inactive) | > 100 µM (inactive) | > 100 µM (inactive) | > 100 µM (inactive) | 33.9 µM (inactive) | > 100 µM (inactive) | > 89.5 µM (inactive) | > 100 µM (inactive) | > 100 µM (inactive) | > 85.7 µM (inactive) | –
COC(=O)/C=C/C(=O)C1C(C(=O)OC)C2(C(=O)OC)CCC1(C(=O)OC)N2 (centres undefined) | > 100 µM (inactive) | > 100 µM (inactive) | > 100 µM (inactive) | > 100 µM (inactive) | > 100 µM (inactive) | > 100 µM (inactive) | > 100 µM (inactive) | > 100 µM (inactive) | > 100 µM (inactive) | – | > 100 µM (inactive) | – | – | > 100 µM (inactive) | > 100 µM (inactive) | – | > 100 µM (inactive) | – | –
O=C(CCC(=O)Nc1ccc(Cl)c(Cl)c1)Cc1nc2ccccc2o1 | > 100 µM (inactive) | > 100 µM (inactive) | > 100 µM (inactive) | > 100 µM (inactive) | 67.3 µM (inactive) | > 100 µM (inactive) | > 100 µM (inactive) | > 100 µM (inactive) | > 100 µM (inactive) | > 100 µM (inactive) | > 100 µM (inactive) | > 100 µM (inactive) | > 100 µM (inactive) | > 100 µM (inactive) | 29.3 µM (inactive) | > 100 µM (inactive) | > 100 µM (inactive) | > 100 µM (inactive) | –
[O-][N+]1=C(c2ccccc2)COc2ccccc21 | > 100 µM (inactive) | > 100 µM (inactive) | > 100 µM (inactive) | > 100 µM (inactive) | – | > 100 µM (inactive) | > 100 µM (inactive) | > 100 µM (inactive) | > 100 µM (inactive) | > 100 µM (inactive) | > 100 µM (inactive) | > 100 µM (inactive) | 85.1 µM (inactive) | > 100 µM (inactive) | > 100 µM (inactive) | 96.4 µM (inactive) | > 100 µM (inactive) | > 100 µM (inactive) | –
COc1cc2c(cc1O)CCN[C@@]21CS[C@H]2c3c(OC(C)=O)c(C)c4c(c3C(COC1=O)N1C2C2NC(Cc3cc(C)c(OC)c(O)c32)[C@@H]1C#N)OCO4 (some centres undefined) | < 0.01 µM (active) | < 0.01 µM (active) | < 0.01 µM (active) | < 0.01 µM (active) | < 0.01 µM (active) | < 0.01 µM (active) | < 0.01 µM (active) | < 0.01 µM (active) | < 0.01 µM (active) | < 0.01 µM (active) | < 0.01 µM (active) | – | < 0.01 µM (active) | < 0.01 µM (active) | < 0.01 µM (active) | < 0.01 µM (active) | < 0.01 µM (active) | < 0.01 µM (active) | –
CC(C)(C)OC(=O)NC1CCCC1=O (centres undefined) | > 100 µM (inactive) | > 100 µM (inactive) | > 100 µM (inactive) | > 100 µM (inactive) | > 100 µM (inactive) | > 100 µM (inactive) | > 100 µM (inactive) | > 100 µM (inactive) | > 100 µM (inactive) | > 100 µM (inactive) | > 100 µM (inactive) | > 100 µM (inactive) | > 100 µM (inactive) | > 100 µM (inactive) | > 100 µM (inactive) | > 100 µM (inactive) | > 100 µM (inactive) | 40.9 µM (inactive) | –
CNC1=C(C)C(=O)C(C)=C(C(C)(C)CC(=O)n2cc(F)c(=O)[nH]c2=O)C1=O | > 43.1 µM (inactive) | > 100 µM (inactive) | 26.7 µM (inactive) | 1.16 µM (inactive) | 16.1 µM (inactive) | 12.3 µM (inactive) | 7.5 µM (inactive) | 3.97 µM (inactive) | 22.6 µM (inactive) | 43.4 µM (inactive) | 5.09 µM (inactive) | 68.2 µM (inactive) | > 65.3 µM (inactive) | 48.1 µM (inactive) | 38.5 µM (inactive) | 71 µM (inactive) | 3.97 µM (inactive) | 69.3 µM (inactive) | –
COC(=O)/C([Se]c1c(C)cc(C)cc1C)=C(\[Se]c1c(C)cc(C)cc1C)C(=O)OC | > 100 µM (inactive) | > 100 µM (inactive) | > 100 µM (inactive) | > 100 µM (inactive) | > 100 µM (inactive) | > 100 µM (inactive) | > 100 µM (inactive) | > 10 µM (inactive) | > 100 µM (inactive) | > 100 µM (inactive) | > 100 µM (inactive) | > 100 µM (inactive) | > 100 µM (inactive) | > 100 µM (inactive) | > 100 µM (inactive) | > 100 µM (inactive) | > 100 µM (inactive) | > 100 µM (inactive) | –
Cc1ccc2nc(NC(=O)/C(=N\NC(=S)NN)C3C(=O)NC(=S)NC3=O)sc2c1 | > 100 µM (inactive) | > 100 µM (inactive) | > 100 µM (inactive) | > 100 µM (inactive) | > 100 µM (inactive) | > 100 µM (inactive) | > 100 µM (inactive) | > 100 µM (inactive) | > 100 µM (inactive) | > 100 µM (inactive) | > 100 µM (inactive) | > 100 µM (inactive) | > 100 µM (inactive) | > 100 µM (inactive) | – | > 100 µM (inactive) | > 100 µM (inactive) | > 100 µM (inactive) | –
CC(=O)Oc1cc2c(n(C)c1=O)CCC2 | > 100 µM (inactive) | – | > 100 µM (inactive) | 81.7 µM (inactive) | > 100 µM (inactive) | > 100 µM (inactive) | > 100 µM (inactive) | > 100 µM (inactive) | > 100 µM (inactive) | > 100 µM (inactive) | > 100 µM (inactive) | > 100 µM (inactive) | > 100 µM (inactive) | > 100 µM (inactive) | – | 96.4 µM (inactive) | > 100 µM (inactive) | > 100 µM (inactive) | > 100 µM (inactive)
C/N=C(\N)c1ccc(NC(=N)c2ccc(C(=N)Nc3ccc(/C(N)=N/C)cc3)cc2)cc1 | > 100 µM (inactive) | > 100 µM (inactive) | > 100 µM (inactive) | – | – | > 100 µM (inactive) | – | > 100 µM (inactive) | > 100 µM (inactive) | > 100 µM (inactive) | > 100 µM (inactive) | > 100 µM (inactive) | > 100 µM (inactive) | > 100 µM (inactive) | > 100 µM (inactive) | > 100 µM (inactive) | > 100 µM (inactive) | > 100 µM (inactive) | –
NCC1(N2CCOCC2)C2CCCC21CO (centres undefined) | > 100 µM (inactive) | > 100 µM (inactive) | > 100 µM (inactive) | > 100 µM (inactive) | – | > 100 µM (inactive) | > 100 µM (inactive) | > 100 µM (inactive) | > 100 µM (inactive) | > 100 µM (inactive) | > 100 µM (inactive) | > 100 µM (inactive) | > 100 µM (inactive) | > 100 µM (inactive) | > 100 µM (inactive) | – | > 100 µM (inactive) | > 100 µM (inactive) | –
COc1ccc([Se][Se]c2ccc(OC)cc2OC)c(OC)c1 | 4.54 µM (inactive) | 2.13 µM (inactive) | 3.07 µM (inactive) | 6.07 µM (inactive) | – | 7.85 µM (inactive) | 2.92 µM (inactive) | 1.75 µM (inactive) | 2.81 µM (inactive) | 2.9 µM (inactive) | 8.89 µM (inactive) | 2.45 µM (inactive) | 2.08 µM (inactive) | 2.92 µM (inactive) | 3.52 µM (inactive) | 2 µM (inactive) | > 10 µM (inactive) | 1.59 µM (inactive) | –
